Measurements as given in the supplement of paper PMC10307832.

Tests used:
Assay in all cases: relative viability (nuclei count vs DMSO), 5 days (fraction); higher = more cells survive
[1] = compound: NCC(=O)Nc1ccc(-n2nc(C(F)(F)F)cc2-c2ccc3c(ccc4ccccc43)c2)cc1 + N=C(N)NC(=N)NCCc1ccccc1 [Phenformin] (partner 250 µM)
In short: (§1)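 Each reported value is a median over duplicate plates. It expresses relative viability: treated-well nuclei count divided by vehicle-well nuclei count. Lung cancer cell lines in 1536-well plates were dosed by pin tool a day after seeding, alone with one drug or with a fixed anchor-drug dose plus five library-drug doses (not always all listed) in √10 steps, and nuclei were counted after 5 days.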

kb NB 142-70 + AZD7762 = compound: C1CSC2=C(C(=O)N1)SC3=C2C=C(C=C3)O [kb NB 142-70] + NC(=O)Nc1cc(-c2cccc(F)c2)sc1C(=O)N[C@H]1CCCNC1 [AZD7762] (partner 0.2 µM)
In short: as §1

[2] = compound: C1CSC2=C(C(=O)N1)SC3=C2C=C(C=C3)O [kb NB 142-70] + CCNC(=O)c1noc(-c2cc(C(C)C)c(O)cc2O)c1-c1ccc(CN2CCOCC2)cc1 [Luminespib] (partner 0.01 µM)
In short: as §1

[3] = compound: C1CSC2=C(C(=O)N1)SC3=C2C=C(C=C3)O [kb NB 142-70] + CC(=O)Nc1cccc(-n2c(=O)n(C3CC3)c(=O)c3c(Nc4ccc(I)cc4F)n(C)c(=O)c(C)c32)c1 [Trametinib] (partner 0.02 µM)
In short: as §1

[4] = compound: NCC(=O)Nc1ccc(-n2nc(C(F)(F)F)cc2-c2ccc3c(ccc4ccccc43)c2)cc1 + O=C(c1cc(Cc2n[nH]c(=O)c3ccccc23)ccc1F)N1CCN(C(=O)C2CC2)CC1 [Olaparib] (partner 8 µM)
In short: as §1

Row | Cell Line | relative viability ([1]; first compound 0.02 µM) | relative viability ([1]; first compound 0.06325 µM) | relative viability ([1]; first compound 0.2 µM) | relative viability ([1]; first compound 0.6325 µM) | relative viability ([1]; first compound 2 µM) | relative viability (kb NB 142-70 + AZD7762; first compound 0.1 µM) | relative viability (kb NB 142-70 + AZD7762; first compound 1 µM) | relative viability (kb NB 142-70 + AZD7762; first compound 3.162 µM) | relative viability ([2]; first compound 0.1 µM) | relative viability ([2]; first compound 1 µM) | relative viability ([2]; first compound 3.162 µM) | relative viability ([3]; first compound 0.1 µM) | relative viability ([3]; first compound 1 µM) | relative viability ([3]; first compound 3.162 µM) | relative viability ([4]; first compound 0.02 µM) | relative viability ([4]; first compound 0.06325 µM) | relative viability ([4]; first compound 0.2 µM) | relative viability ([4]; first compound 0.6325 µM) | relative viability ([4]; first compound 2 µM)
1 | NCI-H1651 | 0.313 | 0.387 | 0.327 | 0.371 | 0.313 | 0.488 | 0.448 | 0.547 | 0.926 | 0.856 | 0.354 | 0.786 | 0.858 | 0.834 | 0.177 | 0.177 | 0.175 | 0.175 | 0.173
2 | NCI-H1666 | 0.552 | 0.566 | 0.539 | 0.586 | 0.579 | 0.879 | 0.714 | 0.89 | 0.898 | 0.985 | 0.81 | 0.842 | 0.934 | 0.776 | 0.734 | 0.83 | 0.824 | 0.747 | 0.776
3 | NCI-H1734 | 0.421 | 0.365 | 0.414 | 0.422 | 0.395 | 0.585 | 0.589 | 0.507 | 0.185 | 0.205 | 0.171 | 0.717 | 0.633 | 0.531 | 0.629 | 0.603 | 0.678 | 0.569 | 0.575
4 | NCI-H1755 | 0.582 | 0.587 | 0.577 | 0.606 | 0.607 | 0.436 | 0.447 | 0.431 | 0.49 | 0.45 | 0.557 | 0.814 | 0.742 | 0.836 | 0.898 | 0.854 | 0.933 | 0.914 | 0.923
5 | NCI-H1792 | 0.325 | 0.364 | 0.297 | 0.337 | 0.411 | 0.803 | 0.907 | 0.857 | 0.429 | 0.582 | 0.553 | 0.478 | 0.567 | 0.579 | 0.597 | 0.518 | 0.404 | 0.385 | 0.511
6 | NCI-H1793 | 0.258 | 0.376 | 0.412 | 0.392 | 0.422 | 0.6 | 0.667 | 0.615 | 0.188 | 0.179 | 0.153 | 0.399 | 0.542 | 0.463 | 1.05 | 0.957 | 0.921 | 0.852 | 1.02
7 | NCI-H1915 | 0.367 | 0.364 | 0.371 | 0.349 | 0.369 | 0.679 | 0.821 | 0.851 | 0.797 | 0.897 | 0.489 | 0.332 | 0.331 | 0.37 | 0.256 | 0.287 | 0.25 | 0.255 | 0.257
8 | NCI-H1944 | 0.191 | 0.233 | 0.204 | 0.201 | 0.207 | 0.492 | 0.514 | 0.6 | 0.708 | 0.726 | 0.8 | 0.417 | 0.444 | 0.442 | 0.463 | 0.384 | 0.4 | 0.388 | 0.397
9 | NCI-H1975 | 0.392 | 0.375 | 0.439 | 0.424 | 0.422 | 0.652 | 0.748 | 0.7 | 0.286 | 0.197 | 0.106 | 0.407 | 0.339 | 0.248 | 0.763 | 0.847 | 0.887 | 0.744 | 0.873
10 | NCI-H1993 | 0.453 | 0.438 | 0.515 | 0.493 | 0.5 | 0.73 | 0.611 | 1.03 | 1.03 | 0.858 | 0.673 | 0.479 | 0.741 | 0.485 | 1.01 | 1.01 | 1.06 | 0.915 | 1.08
11 | NCI-H2085 | 0.689 | 0.786 | 0.652 | 0.702 | 0.72 | 1.02 | 1.08 | 0.77 | 0.383 | 0.358 | 0.339 | 0.515 | 0.542 | 0.325 | 0.853 | 0.802 | 0.801 | 0.829 | 0.812
12 | NCI-H2087 | 0.455 | 0.583 | 0.441 | 0.48 | 0.47 | 1.38 | 1.45 | 1.18 | 0.183 | 0.164 | 0.116 | 0.18 | 0.263 | 0.194 | 0.583 | 0.525 | 0.592 | 0.67 | 0.634
13 | NCI-H2126 | 0.515 | 0.559 | 0.5 | 0.518 | 0.539 | 0.925 | 1.03 | 1.08 | 0.797 | 0.878 | 0.879 | 0.593 | 0.534 | 0.473 | 0.864 | 0.877 | 0.925 | 0.928 | 0.913
14 | NCI-H2170 | 0.397 | 0.446 | 0.429 | 0.438 | 0.457 | 0.899 | 1.04 | 0.724 | 0.578 | 0.728 | 0.521 | 0.878 | 0.958 | 0.888 | 0.689 | 0.638 | 0.62 | 0.673 | 0.605
15 | NCI-H2342 | 0.685 | 0.582 | 0.733 | 0.515 | 0.537 | 0.548 | 0.49 | 0.518 | 0.625 | 0.761 | 0.719 | 0.804 | 0.857 | 0.903 | 0.623 | 0.477 | 0.434 | 0.447 | 0.422
16 | NCI-H2347 | 0.51 | 0.394 | 0.547 | 0.386 | 0.281 | 0.873 | 0.924 | 0.737 | 0.387 | 0.431 | 0.387 | 0.259 | 0.267 | 0.233 | 0.572 | 0.611 | 0.648 | 0.63 | 0.521
